Test results published in US20260125382A1, “COMPOUNDS FOR INHIBITING OR DEGRADING CDK2 AND/OR CDK9 AND MEDICINAL USE THEREOF” (KOREA RESEARCH INSTITUTE OF CHEMICAL TECHNOLOGY, priority 2022, published 2026).

Tests used:
CDK2 = target: T1, CDK2 (Homo sapiens, UniProt P24941); test: CDK protein degradation activity (Western blotting), CDK2; type: cell-based; conditions: MDA-MB-231 cells, 16 hours, Western blot
T1 construct: endogenous in cells; host or cells: MDA-MB-231
How it was run: (§1)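 MDA-MB-231 cells treated 16 h with compound at 100 nM, 1 μM or 10 μM, with DMSO as control. Lysates run on SDS-PAGE and immunoblotted for CDK2, CDK9 and tubulin; band levels quantified by densitometry.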

CDK9 = target: T2, CDK9 (Homo sapiens, UniProt P50750); test: CDK protein degradation activity (Western blotting), CDK9; type: cell-based; conditions: MDA-MB-231 cells, 16 hours, Western blot
T2 construct: endogenous in cells; host or cells: MDA-MB-231
How it was run: as §1

T2 sequence (P50750 whole entry): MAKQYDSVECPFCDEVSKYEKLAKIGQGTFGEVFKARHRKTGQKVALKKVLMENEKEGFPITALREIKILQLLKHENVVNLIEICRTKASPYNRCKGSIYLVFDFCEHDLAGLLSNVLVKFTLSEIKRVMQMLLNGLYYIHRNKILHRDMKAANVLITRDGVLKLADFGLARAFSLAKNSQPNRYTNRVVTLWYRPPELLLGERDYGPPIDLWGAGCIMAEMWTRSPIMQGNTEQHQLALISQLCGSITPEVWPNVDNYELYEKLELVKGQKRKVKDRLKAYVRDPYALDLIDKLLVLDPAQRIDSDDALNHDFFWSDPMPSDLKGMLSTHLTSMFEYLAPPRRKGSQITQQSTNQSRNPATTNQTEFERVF

Enzyme degradation CDK2 (% remaining) @ 0.1 μM (CDK2) | Enzyme degradation CDK2 (% remaining) @ 1 μM (CDK2) | Enzyme degradation CDK2 (% remaining) @ 10 μM (CDK2) | Enzyme degradation CDK9 (% remaining) @ 0.1 μM (CDK9) | Enzyme degradation CDK9 (% remaining) @ 1 μM (CDK9) | Enzyme degradation CDK9 (% remaining) @ 10 μM (CDK9) | Structure (SMILES)
100% | 0% | 0% | 100% | 0% | 0% | O=C1CC[C@H](N2C(=O)c3cc(F)c(N4CCN(C5CC6(CCN(c7ccc(Nc8ncnc9c8ncn9[C@H]8C[C@@H](NC(=O)Cc9ccccc9)C8)cc7)CC6)C5)CC4)cc3C2=O)C(=O)N1 [Compound 336, N-((1s,3s)-3-(6-((4-(2-(4-(2-(2,6-dioxopiperidin-3-yl)-6-fluoro-1,3-dioxoisoindolin-5-yl)piperazin-1-yl)-7-azaspiro[3.5]nonan-7-yl)phenyl)amino)-9H-purin-9-yl)cyclobutyl)-2-phenylacetamide]
50/50/50% | 50/50/50% | 50/50/50% | 0/0/0% | 0/0/0% | 0/0/0% | O=C1CC[C@H](N2C(=O)c3ccc(N4CCC(CCN5CCN(c6ccc(Nc7ncnc8c7ncn8[C@H]7C[C@@H](NC(=O)c8c(Cl)cccc8Cl)C7)cc6)CC5)CC4)cc3C2=O)C(=O)N1 [Compound 405, 2,6-dichloro-N-((1s,3s)-3-(6-((4-(4-(2-(1-(2-(2,6-dioxopiperidin-3-yl)-1,3-dioxoisoindolin-5-yl)piperidin-4-yl)ethyl)piperazin-1-yl)phenyl)amino)-9H-purin-9-yl)cyclobutyl)benzamide]
50% | 30% | 30% | 30% | 10% | 0% | O=C1CC[C@H](N2C(=O)c3ccc(N4CC(C(=O)N5CCN(CC6CCN(c7ccc(Nc8ncnc9c8ncn9C8CC(NC(=O)Cc9ccccc9)C8)cc7)CC6)CC5)C4)cc3C2=O)C(=O)N1 (stereo partly drawn) [Compound 331, N-((1s,3s)-3-(6-((4-(4-((4-(1-(2-(2,6-dioxopiperidin-3-yl)-1,3-dioxoisoindolin-5-yl)azetidin-3-carbonyl)piperazin-1-yl)methyl)piperidin-1-yl)phenyl)amino)-9H-purin-9-yl)cyclobutyl)-2-phenylacetamide]
50% | 40% | 40% | 0/0/0% | 0/0/0% | 0/0/0% | O=C1CCC(N2C(=O)c3cccc(CCCCN4CCC(CN5CCN(c6ccc(Nc7ncnc8c7ncn8[C@H]7C[C@@H](NC(=O)c8cccc(F)n8)C7)cc6)CC5)CC4)c3C2=O)C(=O)N1 (stereo partly drawn) [Compound 432, N-((1s,3s)-3-(6-((4-(4-((1-(4-(2-(2,6-dioxopiperidin-3-yl)-1,3-dioxoisoindolin-4-yl)butyl)piperidin-4-yl)methyl)piperazin-1-yl)phenyl)amino)-9H-purin-9-yl)cyclobutyl)-6-fluoropicolinamide]
30% | 20% | 20% | 30/30/30% | 30/30/30% | 30/30/30% | O=C1CC[C@@H](c2cccc(OCC(=O)N3CC(N4CCC5(CC4)CC(N4CCN(c6ccc(Nc7ncnc8c7ncn8[C@H]7C[C@@H](NC(=O)Cc8ccccc8)C7)cc6)CC4)C5)C3)c2)C(=O)N1 [Compound 274, N-((1s,3s)-3-(6-((4-(4-(7-(1-(2-(3-(2,6-dioxopiperidin-3-yl)phenoxy)acetyl)azetidin-3-yl)-7-azaspiro[3.5]nonan-2-yl)piperazin-1-yl)phenyl)amino)-9H-purin-9-yl)cyclobutyl)-2-phenylacetamide]
40/40/40% | 40/40/40% | 40/40/40% | 0/0/0% | 0/0/0% | 0/0/0% | O=C1CC[C@H](N2C(=O)c3ccc(N4CC(C(=O)N5CCC(CN6CCN(c7ccc(Nc8ncnc9c8ncn9[C@H]8C[C@@H](NC(=O)c9cccc(C(F)(F)F)n9)C8)cc7)CC6)CC5)C4)cc3C2=O)C(=O)N1 [Compound 469, N-((1s,3s)-3-(6-((4-(4-((1-(1-(2-(2,6-dioxopiperidin-3-yl)-1,3-dioxoisoindolin-5-yl)azetidin-3-carbonyl)piperidin-4-yl)methyl)piperazin-1-yl)phenyl)amino)-9H-purin-9-yl)cyclobutyl)-6-(trifluoromethyl)picolinamide]
80% | 50% | 50% | 20% | 10% | 10% | O=C1CCN(c2coc3cc(C(=O)N4CCC(CC(=O)N5CCN(c6ccc(Nc7ncnc8c7ncn8[C@H]7C[C@@H](NC(=O)Cc8ccccc8)C7)cc6)CC5)CC4)ccc23)C(=O)N1 [Compound 195, N-((1s,3s)-3-(6-((4-(4-(2-(1-(3-(2,4-dioxotetrahydropyrimidin-1(2H)-yl)benzofuran-6-carbonyl)piperidin-4-yl)acetyl)piperazin-1-yl)phenyl)amino)-9H-purin-9-yl)cyclobutyl)-2-phenylacetamide]
70% | 60% | 40% | 0/0/0% | 0/0/0% | 0/0/0% | Cc1cccc(C(=O)NC2CC(n3cnc4c(NCc5cccc(N6CCN(CC7CCN(C(=O)CNc8ccc9c(c8)C(=O)N([C@H]8CCC(=O)NC8=O)C9=O)CC7)CC6)c5)ncnc43)C2)n1 (stereo partly drawn) [Compound 135, N-((1s,3s)-3-(6-((3-(4-((1-((2-(2,6-dioxopiperidin-3-yl)-1,3-dioxoisoindolin-5-yl)glycyl)piperidin-4-yl)methyl)piperazin-1-yl)benzyl)amino)-9H-purin-9-yl)cyclobutyl)-6-methylpicolinamide]
20% | 40% | 40% | 10% | 0% | 0% | O=C1CC[C@H](N2C(=O)c3cccc(N4CCC5(CC4)CC(N4CCC(c6ccc(Nc7ncnc8c7ncn8C7CC(NC(=O)Cc8ccccc8)C7)cc6)CC4)C5)c3C2=O)C(=O)N1 (stereo partly drawn) [Compound 297, N-((1s,3s)-3-(6-((4-(1-(7-(2-(2,6-dioxopiperidin-3-yl)-1,3-dioxoisoindolin-4-yl)-7-azaspiro[3.5]nonan-2-yl)piperidin-4-yl)phenyl)amino)-9H-purin-9-yl)cyclobutyl)-2-phenylacetamide]
10% | 0% | 0% | 30/30/30% | 30/30/30% | 30/30/30% | O=C1CCC(n2nnc3ccc(N4CC(N5CCN(c6ccc(Nc7ncnc8c7ncn8[C@H]7C[C@@H](NC(=O)Cc8ccccc8)C7)cc6)CC5)C4)cc3c2=O)C(=O)N1 (stereo partly drawn) [Compound 346, N-((1s,3s)-3-(6-((4-(4-(1-(3-(2,6-dioxopiperidin-3-yl)-4-oxo-3,4-dihydrobenzo[d][1,2,3]triazin-6-yl)azetidin-3-yl)piperazin-1-yl)phenyl)amino)-9H-purin-9-yl)cyclobutyl)-2-phenylacetamide]
30% | 10% | 10% | 30% | 10% | 10% | O=C1CC[C@H](N2C(=O)c3ccc(N4CC(CN5CCC(CCN6CCN(c7ccc(Nc8ncnc9c8ncn9[C@H]8C[C@@H](NC(=O)Cc9ccccc9)C8)cc7)CC6)CC5)C4)cc3C2=O)C(=O)N1 [Compound 375, N-((1s,3s)-3-(6-((4-(4-(2-(1-((1-(2-(2,6-dioxopiperidin-3-yl)-1,3-dioxoisoindolin-5-yl)azetidin-3-yl)methyl)piperidin-4-yl)ethyl)piperazin-1-yl)phenyl)amino)-9H-purin-9-yl)cyclobutyl)-2-phenylacetamide]
30/30/30% | 30/30/30% | 30/30/30% | 50% | 30% | 30% | O=C1CCC(N2C(=O)c3ccc(N4CCC(C(=O)N5CC(N6CCN(c7ccc(Nc8ncnc9c8ncn9[C@H]8C[C@@H](NC(=O)Cc9ccccc9)C8)cc7)CC6)C5)CC4)cc3C2=O)C(=O)N1 (stereo partly drawn) [Compound 350, N-((1s,3s)-3-(6-((4-(4-(1-(1-(2-(2,6-dioxopiperidin-3-yl)-1,3-dioxoisoindolin-5-yl)piperidin-4-carbonyl)azetidin-3-yl)piperazin-1-yl)phenyl)amino)-9H-purin-9-yl)cyclobutyl)-2-phenylacetamide]
